# Experimental data: ChEMBL document CHEMBL5352447, “Development of [1,2]oxazoloisoindoles tubulin polymerization inhibitors: Further chemical modifications and potential therapeutic effects against lymphomas” (Eur J Med Chem, 2022)
# System: CCRF-CEM
# Assay: Antiproliferative activity against human CCRF-CEM cells assessed as cell growth inhibition incubated for 72 hrs by MTT assay
# Format: functional
row,SMILES,GI50 [nM]
1,CCOC(=O)c1noc2c1CCc1c-2cn(Cc2ccc(OC)cc2)c1-c1cc(OC)c(OC)c(OC)c1,1040

# System: HL-60(TB)
# Assay: Antiproliferative activity against human HL-60(TB) cells assessed as cell growth inhibition incubated for 72 hrs by MTT assay
# Format: functional
row,SMILES,GI50 [nM]
1,CCOC(=O)c1noc2c1CCc1c-2cn(Cc2ccc(OC)cc2)c1-c1cc(OC)c(OC)c(OC)c1,450

# System: MOLT-4
# Assay: Antiproliferative activity against human MOLT-4 cells assessed as cell growth inhibition incubated for 72 hrs by MTT assay
# Format: functional
row,SMILES,GI50 [nM]
1,CCOC(=O)c1noc2c1CCc1c-2cn(Cc2ccc(OC)cc2)c1-c1cc(OC)c(OC)c(OC)c1,2700

# System: RPMI-8226
# Assay: Antiproliferative activity against human RPMI-8226 cells assessed as cell growth inhibition incubated for 72 hrs by MTT assay
# Format: functional
row,SMILES,GI50 [nM]
1,CCOC(=O)c1noc2c1CCc1c-2cn(Cc2ccc(OC)cc2)c1-c1cc(OC)c(OC)c(OC)c1,2850

# System: SR
# Assay: Antiproliferative activity against human SR cells assessed as cell growth inhibition incubated for 72 hrs by MTT assay
# Format: functional
row,SMILES,GI50 [nM]
1,CCOC(=O)c1noc2c1CCc1c-2cn(Cc2ccc(OC)cc2)c1-c1cc(OC)c(OC)c(OC)c1,2090

# System: EKVX
# Assay: Antiproliferative activity against human EKVX cells assessed as cell growth inhibition incubated for 72 hrs by MTT assay
# Format: functional
row,SMILES,GI50 [nM]
1,CCOC(=O)c1noc2c1CCc1c-2cn(Cc2ccc(OC)cc2)c1-c1cc(OC)c(OC)c(OC)c1,3920

# System: HOP-62
# Assay: Antiproliferative activity against human HOP-62 cells assessed as cell growth inhibition incubated for 72 hrs by MTT assay
# Format: functional
row,SMILES,GI50 [nM]
1,CCOC(=O)c1noc2c1CCc1c-2cn(Cc2ccc(OC)cc2)c1-c1cc(OC)c(OC)c(OC)c1,3000

# System: NCI-H23
# Assay: Antiproliferative activity against human NCI-H23 cells assessed as cell growth inhibition incubated for 72 hrs by MTT assay
# Format: functional
row,SMILES,GI50 [nM]
1,CCOC(=O)c1noc2c1CCc1c-2cn(Cc2ccc(OC)cc2)c1-c1cc(OC)c(OC)c(OC)c1,3040

# System: NCI-H522
# Assay: Antiproliferative activity against human NCI-H522 cells assessed as cell growth inhibition incubated for 72 hrs by MTT assay
# Format: functional
row,SMILES,GI50 [nM]
1,CCOC(=O)c1noc2c1CCc1c-2cn(Cc2ccc(OC)cc2)c1-c1cc(OC)c(OC)c(OC)c1,370

# System: HCC 2998
# Assay: Antiproliferative activity against human HCC 2998 cells assessed as cell growth inhibition incubated for 72 hrs by MTT assay
# Format: functional
row,SMILES,GI50 [nM]
1,CCOC(=O)c1noc2c1CCc1c-2cn(Cc2ccc(OC)cc2)c1-c1cc(OC)c(OC)c(OC)c1,5170

# System: HCT-116
# Assay: Antiproliferative activity against human HCT-116 cells assessed as cell growth inhibition incubated for 72 hrs by MTT assay
# Format: functional
row,SMILES,GI50 [nM]
1,CCOC(=O)c1noc2c1CCc1c-2cn(Cc2ccc(OC)cc2)c1-c1cc(OC)c(OC)c(OC)c1,400

# System: HCT-15
# Assay: Antiproliferative activity against human HCT-15 cells assessed as cell growth inhibition incubated for 72 hrs by MTT assay
# Format: functional
row,SMILES,GI50 [nM]
1,CCOC(=O)c1noc2c1CCc1c-2cn(Cc2ccc(OC)cc2)c1-c1cc(OC)c(OC)c(OC)c1,500

# System: SW-620
# Assay: Antiproliferative activity against human SW620 cells assessed as cell growth inhibition incubated for 72 hrs by MTT assay
# Format: functional
row,SMILES,GI50 [nM]
1,CCOC(=O)c1noc2c1CCc1c-2cn(Cc2ccc(OC)cc2)c1-c1cc(OC)c(OC)c(OC)c1,500

# System: SF-295
# Assay: Antiproliferative activity against human SF-295 cells assessed as cell growth inhibition incubated for 72 hrs by MTT assay
# Format: functional
row,SMILES,GI50 [nM]
1,CCOC(=O)c1noc2c1CCc1c-2cn(Cc2ccc(OC)cc2)c1-c1cc(OC)c(OC)c(OC)c1,3020

# System: SF-539
# Assay: Antiproliferative activity against human SF-539 cells assessed as cell growth inhibition incubated for 72 hrs by MTT assay
# Format: functional
row,SMILES,GI50 [nM]
1,CCOC(=O)c1noc2c1CCc1c-2cn(Cc2ccc(OC)cc2)c1-c1cc(OC)c(OC)c(OC)c1,1840

# System: SNB-19
# Assay: Antiproliferative activity against human SNB-19 cells assessed as cell growth inhibition incubated for 72 hrs by MTT assay
# Format: functional
row,SMILES,GI50 [nM]
1,CCOC(=O)c1noc2c1CCc1c-2cn(Cc2ccc(OC)cc2)c1-c1cc(OC)c(OC)c(OC)c1,670

# System: SNB-75
# Assay: Antiproliferative activity against human SNB-75 cells assessed as cell growth inhibition incubated for 72 hrs by MTT assay
# Format: functional
row,SMILES,GI50 [nM]
1,CCOC(=O)c1noc2c1CCc1c-2cn(Cc2ccc(OC)cc2)c1-c1cc(OC)c(OC)c(OC)c1,3650

# System: U-251
# Assay: Antiproliferative activity against human U-251 cells assessed as cell growth inhibition incubated for 72 hrs by MTT assay
# Format: functional
row,SMILES,GI50 [nM]
1,CCOC(=O)c1noc2c1CCc1c-2cn(Cc2ccc(OC)cc2)c1-c1cc(OC)c(OC)c(OC)c1,540

# System: M14
# Assay: Antiproliferative activity against human M14 cells assessed as cell growth inhibition incubated for 72 hrs by MTT assay
# Format: functional
row,SMILES,GI50 [nM]
1,CCOC(=O)c1noc2c1CCc1c-2cn(Cc2ccc(OC)cc2)c1-c1cc(OC)c(OC)c(OC)c1,410

# System: MDA-MB-435
# Assay: Antiproliferative activity against human MDA-MB-435 cells assessed as cell growth inhibition incubated for 72 hrs by MTT assay
# Format: functional
row,SMILES,GI50 [nM]
1,CCOC(=O)c1noc2c1CCc1c-2cn(Cc2ccc(OC)cc2)c1-c1cc(OC)c(OC)c(OC)c1,570

# System: SK-MEL-2
# Assay: Antiproliferative activity against human SK-MEL-2 cells assessed as cell growth inhibition incubated for 72 hrs by MTT assay
# Format: functional
row,SMILES,GI50 [nM]
1,CCOC(=O)c1noc2c1CCc1c-2cn(Cc2ccc(OC)cc2)c1-c1cc(OC)c(OC)c(OC)c1,4290

# System: SK-MEL-28
# Assay: Antiproliferative activity against human SK-MEL-28 cells assessed as cell growth inhibition incubated for 72 hrs by MTT assay
# Format: functional
row,SMILES,GI50 [nM]
1,CCOC(=O)c1noc2c1CCc1c-2cn(Cc2ccc(OC)cc2)c1-c1cc(OC)c(OC)c(OC)c1,1900

# System: SK-MEL-5
# Assay: Antiproliferative activity against human SK-MEL-5 cells assessed as cell growth inhibition incubated for 72 hrs by MTT assay
# Format: functional
row,SMILES,GI50 [nM]
1,CCOC(=O)c1noc2c1CCc1c-2cn(Cc2ccc(OC)cc2)c1-c1cc(OC)c(OC)c(OC)c1,490
